Source: paper PMC12310718, “Evaluation of newly synthesized schiff base Pd(II) complexes for prostate cancer treatment through in vitro cytotoxicity and molecular mechanistic studies” (Frontiers in Chemistry, 2025)

How the values were obtained:
MRC-5 = test: MTT cytotoxicity assay, MRC-5 fibroblasts; format: cell-based, human; conditions: mean ± SD
Excerpt: (§1) In this investigation, two experimental groups of cancer cell lines were employed: human prostate carcinoma cells lacking prostate-specific membrane antigen (PSMA) and androgen receptor independence (DU-145 and HTB-81™), alongside human prostate carcinoma cells (PC-3 and CRL-1435™). The control group comprised non-cancerous human fibroblasts (MRC-5 and CCL-171™). All cell lines utilized in this study were procured from the American Type Culture Collection (ATCC, Manassas, VA, United States). The cells were maintained in a complete medium containing high-glucose DMEM, supplemented with 10% fetal bovine serum and 200 mM L-glutamine (reagents sourced from Sigma-Aldrich, St. Louis, MO, United States). Cultivation of the cells was conducted in 25 cm^2 flasks (Thermo Fisher Scientific, Waltham, MA, United States) at 37°C under conditions of absolute humidity and a 5% CO2 atmosphere. The cytotoxic effects of three newly synthesized Pd(II) complexes were assessed on DU-145, PC-3, and MRC-5 cell lines using the MTT assay. For comparison, the cytotoxicity of cisplatin, a clinically established chemotherapeutic agent, was also evaluated across all cell lines. Cells were harvested during their exponential growth phase, counted, and seeded at a density of 5 × 10^3 cells per well in 96-well culture plates. […] The treated cells were incubated under identical conditions (37°C, 5% CO2, absolute humidity) for durations of 24, 48, and 72 h. After incubation, the medium was removed, and an MTT solution was added to each well. The cells were then incubated for an additional 2 h to facilitate the reduction of thiazolyl blue tetrazolium bromide in the MTT solution. Subsequently, the MTT solution was carefully removed, and the resulting formazan crystals were solubilized in DMSO. […] All experiments were performed in triplicate and repeated across three independent runs. Cell viability was calculated as a percentage by dividing the absorbance of treated cells (minus blank absorbance) by the average absorbance of untreated control cells (minus blank absorbance) and multiplying by 100. % of the viable cells=absorbance of treated cell−absorbance of blank / absorbance of untreated cell−absorbance of blank * 100 […] This analysis was performed using Microsoft Office Excel 2010, leveraging its curve-fitting capabilities to determine precise inhibitory concentrations.

PC-3 = test: MTT cytotoxicity assay, PC-3; format: cell-based, human; conditions: mean ± SD
Excerpt: as §1

DU-145 = test: MTT cytotoxicity assay, DU-145; format: cell-based, human; conditions: mean ± SD
Excerpt: as §1

DU-145 cells [1] = test: Mitochondrial membrane potential by JC-10 staining; format: cell-based, human; conditions: DU-145, IC50 of complex, 48 h
Procedure: JC-10 gathers in the mitochondria of living cells, forming red fluorescence aggregates. On the other hand, JC-10 is also present in a monomeric cytosolic form and dyes cells green in necrotic and apoptotic cells. Mitochondrial membrane potential was assessed using the dye JC-10. DU-145 cells were seeded at a density of 2 × 10^4 cells per well in 24-well cell culture plates and incubated in complete DMEM medium at 37°C with 5% CO2 for 24 h. […] The cells were treated for 20 min with 2.5 μM JC-10 dye in warm PBS. JC-10 accumulation in cells was evaluated using a Gramma Libero FLUO500T trinocular inverted fluorescence microscope. We used the 525/590 nm fluorescence emission ratio for our quantification analysis. We captured images using the 2020 S-EYE Setup Microscope camera and the S-EYE_Setup-1.6.0.11 software. The ImageJ program was used to analyse the images.

[2] = Stability in DMSO by UV-Vis spectra; format: physicochemical; conditions: UV-Vis 200–600 nm after t = 0, 24, and 48 h
Procedure: UV-Vis spectra were recorded in DMSO as a solvent, at room temperature, and the data of the absorption wavelength maxima (λ max) are given in Table 3 and Figure 3. […] Further, two more bands are attributed to the ligand 1b, the medium intensity π → π* and very weak and broad n→π* transition of the imine group. Upon coordination, the π → π* band of the imine group decreases in intensity, while the new band at 393 nm, attributed to Ligand-to-Metal Charge Transfer (LMCT), appears ([Felicio et al., 2001]; [Hussain et al., 2019]). The stability of Schiff base metal complexes is a key factor influencing their performance during biological evaluations. Unstable complexes, prone to hydrolysis or degradation, may lead to reduced efficacy, altered mechanisms of action, or false-positive/negative outcomes. Palladium (II), typically adopting a square-planar geometry ([Kostić et al., 2003]), forms stable complexes with bidentate Schiff base ligands, but its coordination environment can be sensitive to ligand exchange. […] In order to determine the stability of selected complex 2b in DMSO, a series of UV-Vis spectra in the range of 200–600 nm were recorded after t = 0, 24, and 48 h (Supplementary Figure SI17) ([Marjanović et al., 2023]).

[3] = Stability assay in PBS by UV-Vis spectra; format: physicochemical; conditions: ∼10^–5 M, less than 0.7% DMSO, UV-Vis after 0, 24 and 48 h
Procedure: The complex used for the testing was dissolved in the minimal amount of DMSO (dimethylsulfoxide) possible and diluted with PBS of ∼10^–5 M in concentration and less than 0.7% DMSO. UV-Vis spectra were recorded after 0, 24 and 48 h in the range 200–600 nm. Absorption spectra were recorded on UV–Vis Perkin–Elmer Lambda 35 spectrophotometer equipped with water thermostated cell.

DU-145 cells [4] = test: Clonogenic assay; format: cell-based, human; conditions: DU-145, four concentrations, 2 weeks colony formation
Procedure: In this assay ([Franken et al., 2006]), cells are seeded at low densities and incubated for 2 weeks to allow colony formation, with colonies defined as clusters of ≥50 cells. Treated and untreated cells are compared to assess survival fractions (SF), calculated by normalizing the plating efficiency (PE) of treated cells to that of controls. Colonies are fixed with 6% glutaraldehyde, stained with 0.5% crystal violet, and colonies were quantified using ImageJ software version 1.54 with a standardized macro. Images were first converted to 8-bit grayscale, and background noise was reduced using the “Subtract Background” function. Thresholding was applied to isolate colonies, and the “Analyze Particles” tool was used to count colonies based on defined size and circularity parameters. Only colonies with an area corresponding to ≥50 cells and a circularity range of 0.3–1.0 were included. Overlapping or merged colonies were excluded unless distinct borders were visually discernible. All image processing steps were applied consistently across samples to ensure reproducibility. Data are represented as dose-response survival curves.
Plating efficiency is calculated by the following formula: PE=Number of colonies/Number of cells seeded×100%
Survival fraction is calculated when all plating efficiencies are calculated according to the formula: SF=PEtreated/PEcontrol

CT-DNA = test: DNA viscosity measurement; format: binding, calf; conditions: 0.01 mM DNA in PBS, [2c]/[DNA] 0.1-1
Procedure: All chemicals were used without purification, and all of them are commercially available. ^1H NMR and ^13C NMR spectra were recorded in DMSO-d6 as a solvent with a Bruker Ascend 400 (400 MHz) spectrometer. Chemical shifts are given in parts per million (δ) down from tetramethylsilane as the internal standard. For elemental analyses (C, H, O, N) were used Elementar Vario MICRO elemental analyzer. IR spectra were obtained on Perkin Elmer FT-IR spectrometer, two equipped with a DTGS detector. Mass spectra were recorded at 6546 LC/Q-TOF (Agilent, Santa Clara, CA, SAD) equipped with Jet Stream ion source and connected with 1,290 Infinity II HPLC (Agilent, Santa Clara, CA, AD). Data were collected every second in the mass area 100–1,000 Da. Molar conductance of the Pd(II) complexes was measured on freshly prepared 10^–3 M solutions in DMSO at room temperature using Crison EC-Meter basic 30+conductivity cell. The viscosity of the DNA solution was measured in the absence and presence of increasing amounts of 2c. To the 0.01 mM DNA solution in PBS, a corresponding ratio of examinated compound was added at ratio [2c]/[DNA]: 0.1; 0.2; 0.3; 0.4; 0.5; 0.6; 0.7; 0.8; 0.9 and 1. Data are presented as a plot of (η/η0)1/3 vs. ratio of [2c]/[DNA], where η is the DNA viscosity in the presence of the compound, η0 is the viscosity of DNA in buffer alone.

Structure (SMILES): N.N.[Cl][Pt][Cl] [CP, cisplatin, reference compound]
- IC50 (MRC-5; MRC-5, 24 h drug exposure): 90.1 ± 9.2 µM
- IC50 (MRC-5; MRC-5, 48 h drug exposure): 41.9 ± 4.4 µM
- IC50 (MRC-5; MRC-5, 72 h drug exposure): 24.4 ± 0.8 µM
- IC50 (PC-3; PC-3, 48 h drug exposure): 29.7 ± 3.1 µM
- IC50 (PC-3; PC-3, 72 h drug exposure): 21.9 ± 2.2 µM
- IC50 (DU-145; DU-145, 24 h drug exposure): 22.3 ± 2.4 µM
- IC50 (DU-145; DU-145, 48 h drug exposure): 11.4 ± 1.1 µM
- IC50 (DU-145; DU-145, 72 h drug exposure): 8.2 ± 0.8 µM

Structure (SMILES): Oc1ccc(CN=Cc2ccccc2[O][Pd][O]c2ccccc2C=NCc2ccc(O)cc2)cc1 [Complex 2a]
- IC50 (MRC-5; MRC-5, 24 h drug exposure): 94.3 ± 9.7 µM
- IC50 (MRC-5; MRC-5, 48 h drug exposure): 92.4 ± 9.1 µM
- IC50 (MRC-5; MRC-5, 72 h drug exposure): 83 ± 8.1 µM
- IC50 (PC-3; PC-3, 24 h drug exposure): 94.1 ± 9.1 µM
- IC50 (PC-3; PC-3, 48 h drug exposure): 89.8 ± 8.8 µM
- IC50 (PC-3; PC-3, 72 h drug exposure): 79.3 ± 7.7 µM
- IC50 (DU-145; DU-145, 24 h drug exposure): 83.6 ± 9.2 µM
- IC50 (DU-145; DU-145, 48 h drug exposure): 17.5 ± 1.6 µM
- IC50 (DU-145; DU-145, 72 h drug exposure): 9.3 ± 0.9 µM
- increase of JC-10 green/JC-10 red ratio compared to untreated cells (DU-145 cells [1]): 2.1 fold

Structure (SMILES): Oc1ccc(CCN=Cc2ccccc2[O][Pd][O]c2ccccc2C=NCCc2ccc(O)cc2)cc1 [Complex 2b]
- stability in DMSO [2]: retaining its structural integrity without signs of ligand displacement or decomposition
- stability in solution (PBS) [3]: sufficient stability in solution under physiologically relevant conditions
- IC50 (MRC-5; MRC-5, 24 h drug exposure): 87.7 ± 8.8 µM
- IC50 (MRC-5; MRC-5, 48 h drug exposure): 78.5 ± 7.7 µM
- IC50 (MRC-5; MRC-5, 72 h drug exposure): 49.2 ± 5.1 µM
- IC50 (PC-3; PC-3, 24 h drug exposure): 75.2 ± 7.2 µM
- IC50 (PC-3; PC-3, 48 h drug exposure): 58.6 ± 5.6 µM
- IC50 (PC-3; PC-3, 72 h drug exposure): 29.1 ± 2.8 µM
- IC50 (DU-145; DU-145, 24 h drug exposure): 75.9 ± 7.3 µM
- IC50 (DU-145; DU-145, 48 h drug exposure): 19.2 ± 2.1 µM
- IC50 (DU-145; DU-145, 72 h drug exposure): 8.7 ± 0.8 µM
- increase of JC-10 green/JC-10 red ratio compared to untreated cells (DU-145 cells [1]): 2.9 fold

Structure (SMILES): C(=NCCc1c[nH]c2ccccc12)c1ccccc1[O][Pd][O]c1ccccc1C=NCCc1c[nH]c2ccccc12 [Complex 2c]
- IC50 (MRC-5; MRC-5, 24 h drug exposure): 80.7 ± 8.1 µM
- IC50 (MRC-5; MRC-5, 48 h drug exposure): 75.6 ± 7.7 µM
- IC50 (MRC-5; MRC-5, 72 h drug exposure): 42.3 ± 4.1 µM
- IC50 (PC-3; PC-3, 24 h drug exposure): 38.4 ± 3.6 µM
- IC50 (PC-3; PC-3, 48 h drug exposure): 12.5 ± 1.1 µM
- IC50 (PC-3; PC-3, 72 h drug exposure): 8.6 ± 0.9 µM
- long-term antiproliferative effect (survival fraction) (DU-145 cells [4]): most pronounced effect
- IC50 (DU-145; DU-145, 24 h drug exposure): 48.4 ± 5.1 µM
- IC50 (DU-145; DU-145, 48 h drug exposure): 11 ± 1.2 µM
- IC50 (DU-145; DU-145, 72 h drug exposure): 7.1 ± 0.8 µM
- increase of JC-10 green/JC-10 red ratio compared to untreated cells (DU-145 cells [1]): 3.2 fold
- DNA binding mode from viscosity (CT-DNA): intercalates very weakly
